# Source: article PMC9028180, “Anti-Inflammatory Activity of Monosubstituted Xestoquinone Analogues from the Marine Sponge Neopetrosia compacta” (Antioxidants, 2022)
# Where two headings read alike, the source gives them in different places.
# Key:
# [1] = tested on: NO production in LPS-stimulated RAW 264.7 murine macrophage cells; assay: Nitric oxide production assay (Griess) in LPS-stimulated RAW 264.7 cells; format: cell-based
# Experimental: The anti-inflammatory activity of the extracts and compounds was assessed according to the procedure of Ratnayake et al. (2013). RAW 264.7 murine macrophage cells (passage number ≤ 6) were grown in Dulbecco’s Modified Eagle’s Medium (DMEM) supplemented with 10% fetal bovine serum (FBS) and 1% antibiotic-antimycotic solution. At 24 h post-incubation, the cells (200,000 cells/mL) were treated with extracts (50 and 5 µg/mL) or pure compounds in triplicate. For pure compounds, a 20 mM stock was prepared in DMSO and serially diluted to generate eight concentrations ranging from 0.032–100 µM. DMSO (0.5%) served as the solvent control. Dexamethasone (50 µM) and tBHQ (10 µM) served as positive controls. LPS (1 µg/mL) was added to each well after 1 h of extract or compound pre-treatment. A reverse treatment was also done for compounds, where cells were first pre-treated with LPS (1 µg/mL) prior to the addition of the compound.
# After 24 h of incubation, NO production was assessed by measuring the nitrite concentration using the Griess Reagent System (Promega, Madison, WI, USA) according to the manufacturer’s protocol. Results were presented as %NO production relative to LPS-stimulated solvent control.
# [2] = tested on: LPS-stimulated RAW 264.7 murine macrophage cells; assay: Tetrazolium-based (MTT) cell viability assay; details: for IC50: read-out: Cell Viability (IC50); for CC50: Mus musculus, RAW264.7, 24 h; for decrease in cytotoxicity relative to 1: from cell viability IC50, compound pre-treatment + LPS
# Experimental: MTT solution (5 mg/mL in PBS, 15 µL) was added to the original assay plate, and the reaction was terminated with the addition of acidified sodium dodecyl sulfate (SDS) solution after 2 h. Absorbance was measured at 570 nm. […] The concentration-dependent response curve for cell viability of the pure compounds was generated, and the IC50 was determined using a non-linear regression, inhibitor vs. normalized response—variable slope analysis. Samples were tested in at least one independent experiment performed in triplicate.
# Statistical comparison of the cell viability IC50 of 2–6 relative to xestoquinone (1) was analyzed using one-way ANOVA and Tukey’s post-hoc test at p-value < 0.05. Comparison of the IC50 values from NO production and cytotoxicity assessment for each of the compounds were analyzed using a one-tailed unpaired t-test at p-value < 0.05.
# [3] = Direct antioxidant activity, DPPH scavenging assay; details: 30 min, room temperature
# Experimental: The direct antioxidant activity of 1–6 was determined using the 2,2-diphenyl-1-picrylhydrazyl (DPPH) scavenging method. Half-log dilution of 1–6 (0.032 to 100 µM) was prepared in MeOH. Then, 20 μL of 1 mM DPPH was dispensed into each well and incubated for 30 min at room temperature with shaking. Absorbance was measured at 517 nm, and results are presented as % radical scavenging activity (% RSA) relative to the solvent control. Ascorbic acid (0.032–100 µM) and tBHQ (0.032–100 µM) served as positive controls, while 0.5% DMSO served as solvent control. The analysis was done in triplicate.
# [4] = tested on: Nrf2-luciferase reporter MCF7 stable cells; assay: Nrf2-ARE activation luciferase reporter assay; format: cell-based
# Experimental: Nrf2-luciferase reporter MCF7 stable cells (Signosis, Inc.) were grown in high glucose DMEM (Hyclone, Logan, UT, USA) supplemented with 10% FBS, 1% antibiotic-antimycotic solution, and 75 µg/mL geneticin. A 100-µL cell suspension was plated with a seeding density of 20,000 cells/well. The plate was incubated at 37 °C with 5% CO2 for 24 h prior to treatment. Cells were treated with compounds at half-log dilution, ranging from 0.032–100 µM (0.5% DMSO). DMSO (0.5%) and tBHQ (0.01–32 μM) served as solvent and positive controls, respectively. After 8-, 12-, and 16-h incubation, the medium was removed, and cells were washed with 100 µL 1X PBS. Lysis buffer (Signosis, Inc.) was added, and the plate was further incubated for 15 min at room temperature. A 100-µL firefly luciferase substrate (Signosis, Inc.) was added, and luminescence was measured. Nrf2 fold activation of treated cells was assessed relative to the solvent control. The assay was done in two independent experiments in triplicate.
# [5] = tested on: Nrf2-luciferase reporter MCF7 stable cells; assay: Cytotoxicity counter-screen on Nrf2-luciferase reporter MCF7 cells; format: cell-based
# Experimental: Absorbance was measured at 570 nm. […] For the cytotoxicity counter-screen, Nrf2-luciferase reporter MCF7 stable cells were grown, seeded, and treated identically with the reporter assay. Cell viability was done using the tetrazolium reagent, as indicated previously.
# [6] = tested on: Nos2; assay: qRT-PCR differential gene expression, Nos2; format: cell-based, murine; details: 10 μM, 12 h, LPS-stimulated RAW 264.7; relative to LPS-stimulated solvent control
# Experimental: (§1) RAW 264.7 cells (passage number ≤ 6) were seeded in a 6-well microplate at a density of 2.5 × 10^5 cells/well and incubated for 24 h at 37 °C with 5% CO2 prior to treatment. Cells were treated with 10 μM compound or 0.5% DMSO in duplicate and incubated for 1 h before stimulation with LPS (1 µg/mL). At 12 h post-treatment, total RNA was extracted with Qiagen RNeasy extraction kit (Germantown, MD, USA) according to manufacturer’s protocol. RNA was reverse-transcribed from 2 µg of total RNA using SuperScript IV Reverse Transcriptase (Invitrogen, Waltham, MA, USA), 1 mM dNTP, and Oligo (dT)12–18 primer (0.5 µg/mL, Invitrogen). Quantitative real time-PCR (qRT-PCR) was performed in ABI 7500 Fast Real-Time PCR (Applied Biosystems, Bedford, MA, USA). qRT-PCR was performed as a 25 µL total reaction mixture, composed of 1X TaqMan® universal master mix, 1X TaqMan® gene expression assay mix, 2 µL of cDNA, and 9.25 µL RNase-free sterile water. Analyses were carried out using probes for Il1b (Assay ID Mm00434228_m1), Nos2 (Mm00440502_m1), and Nqo1 (Mm01253561_m1). The thermocycler program was designed as follows: 50 °C for 2 min, 95 °C for 10 min, and 40 cycles of 95 °C for 15 s and 60 °C for 1 min. Mouse Gapdh (Mm99999915_g1) was used as the internal control for normalization. The measurement of gene expression is reported in cycles to threshold (Ct) PCR, whose value represents the cycle number at which the amount of amplified DNA of the target gene reached the threshold level. The relative gene expression was analyzed using the comparative Ct method to compare the Ct value of the target gene to the internal control in a treatment sample. Statistical analysis on the relative gene expression was carried out using one-way ANOVA and Tukey’s multiple comparison test with p-value < 0.05. Analysis was done in two independent experiments with three technical replicates each.
# [7] = tested on: Il1b; assay: qRT-PCR differential gene expression, Il1b; format: cell-based, murine; details: 10 μM, 12 h, LPS-stimulated RAW 264.7; relative to LPS-stimulated solvent control
# Experimental: as §1
# [8] = tested on: Nqo1; assay: qRT-PCR differential gene expression, Nqo1; format: cell-based, murine; details: 10 μM, 12 h, LPS-stimulated RAW 264.7
# Experimental: as §1
# [9] = Compound pre-treatment 1 h + LPS (1 µg/mL), 24 h, mean ± SD of two independent experiments, read-out: NO Production (IC50)
# [10] = LPS pre-treatment 1 h + compound, single experiment in triplicate, read-out: NO Production (IC50)
# [11] = Compound pre-treatment 1 h + LPS, 24 h, mean ± SD of two independent experiments
# [12] = LPS pre-treatment 1 h + compound, single experiment in triplicate
# [13] = Mus musculus, RAW264.7, 24 h, Compound pre-treatment 1 h + LPS (1 µg/mL), 24 h, mean ± SD of two independent experiments, read-out: NO Production (IC50)
# [14] = Mus musculus, RAW264.7, 24 h, LPS pre-treatment 1 h + compound, single experiment in triplicate, read-out: NO Production (IC50)
# [15] = read-out: Cell Viability (IC50), Compound pre-treatment 1 h + LPS, 24 h, mean ± SD of two independent experiments
# [16] = read-out: Cell Viability (IC50), LPS pre-treatment 1 h + compound, single experiment in triplicate
# [17] = both timepoints (12 h and 16 h)
compound,measurement,setting,value
"CC(C)(C)c1cc(O)ccc1O [tBHQ, reference compound]",reduction of NO production,[1]; 10 µM,90%
same,IC50,[1]; [9],1.2 ± 0.23 µM
same,IC50,[1]; [10],0.42 µM
same,IC50,[2]; [11],> 100 µM
same,IC50,[2]; [12],> 100 µM
same,IC50,[3],11 µM
same,Nrf2 activation,"[4]; 12 h, 32 μM",18 fold
same,Nrf2 activation,"[4]; 16 h, 10 μM",four
same,Nrf2 activation,"[4]; 16 h, 32 μM",19 fold
same,cytotoxicity to Nrf2-MCF7 cells,"[5]; 12 h, 10 and 32 μM",no observable cytotoxicity
same,cytotoxicity to Nrf2-MCF7 cells,"[5]; 16 h, 10 and 32 μM",non-cytotoxic
same,downregulation of LPS-induced Nos2 expression,[6],3.8 fold
same,downregulation of Il1b expression,[7],six
same,upregulation in Nqo1 expression,[8],6.3 fold
"CC12CCCc3coc(c31)C(=O)c1cc3c(cc12)C(=O)C=C(CO)C3=O (stereo not shown) [Compound 4, 14-hydroxymethylxestoquinone]",IC50,[1]; [13],2.5 ± 0.39 µM
same,IC50,[1]; [14],1.8 µM
same,CC50,[2]; [15],16 ± 0.68 µM
same,CC50,[2]; [16],27 µM
same,decrease in cytotoxicity relative to 1,[2],more than two
same,Nrf2 activation,[4]; 12 h posttreatment,modest increase in Nrf2 activation
"C[C@@]12CCCc3coc(c31)C(=O)c1cc3c(cc12)C(=O)C1=C(NCCS1(=O)=O)C3=O [Compound 2, adociaquinone B]",IC50,"[1]; Mus musculus, RAW264.7, 24 h, read-out: NO Production (IC50), Compound pre-treatment 1 h + LPS (1 µg/mL), 24 h, mean ± SD of two independent experiments",1.9 ± 0.72 µM
same,IC50,"[1]; Mus musculus, RAW264.7, 24 h, read-out: NO Production (IC50), LPS pre-treatment 1 h + compound, single experiment in triplicate",1.5 µM
same,CC50,[2]; [15],5.3 to 6.4 µM
same,CC50,[2]; [16],4.2 µM
same,Nrf2 activation,[4]; [17],Nrf2 activation was not observed
same,downregulation of LPS-induced Nos2 expression,[6],unaffected
same,downregulation of Il1b expression,[7],12.1 fold
same,upregulation in Nqo1 expression,[8],did not change the Nqo1 expression
O=C1O[C@H]([C@@H](O)CO)C(O)=C1O [ascorbic acid],IC50,[3],13 µM
"C[C@@H]1C[C@H]2[C@@H]3CCC4=CC(=O)C=C[C@]4(C)[C@@]3(F)[C@@H](O)C[C@]2(C)[C@@]1(O)C(=O)CO [dexamethasone, reference compound]",reduction of NO production,[1]; 50 µM,50%
same,IC50,[1]; [13],> 0.032 µM
same,IC50,[1]; [14],> 0.032 µM
same,CC50,[2]; [15],> 100 µM
same,CC50,[2]; [16],> 100 µM
"C[C@@]12CCCc3coc(c31)C(=O)c1cc3c(cc12)C(=O)C=CC3=O [Compound 1, xestoquinone]",IC50,[1]; [13],1.2 ± 0.1 µM
same,IC50,[1]; [14],0.99 µM
same,CC50,[2]; [15],6 ± 3.2 µM
same,CC50,[2]; [16],4.9 µM
same,Nrf2 activation,"[4]; 12 h, 1.0 μM, relative to solvent control",at least three
same,Nrf2 activation,"[4]; 12 h, 3.2 μM",at least three
same,Nrf2 activation,[4]; 12 h posttreatment,modest increase in Nrf2 activation
same,Nrf2 activation,"[4]; 16 h, 1.0 μM",four
same,Nrf2 activity in reporter assay,[4]; 16 h incubation,significant activation
same,cytotoxicity to Nrf2-MCF7 cells,"[5]; 12 h, 1.0 and 3.2 μM",no cytotoxicity
same,cytotoxicity to Nrf2-MCF7 cells,"[5]; 16 h, 1.0 and 3.2 μM",no significant cytotoxic effects
same,downregulation of LPS-induced Nos2 expression,[6],2.7 fold
same,downregulation of Il1b expression,[7],2.6 fold
same,upregulation in Nqo1 expression,[8],did not change the Nqo1 expression
adociaquinone A [Compound 3],IC50,[1]; [9],2.1 ± 0.17 µM
same,IC50,[1]; [10],1.5 µM
same,IC50,[2]; [11],6.4 ± 1.2 µM
same,IC50,[2]; [12],5.9 µM
same,Nrf2 activation,[4]; [17],Nrf2 activation was not observed
"CC12CCCc3coc(c31)C(=O)c1cc3c(cc12)C(=O)C(CO)=CC3=O (stereo not shown) [Compound 5, 15-hydroxymethylxestoquinone]",IC50,[1]; [13],4 ± 2.4 µM
same,IC50,[1]; [14],4.7 µM
same,CC50,[2]; [15],> 32 µM
same,CC50,[2]; [16],> 32 µM
same,decrease in cytotoxicity relative to 1,[2],five
same,downregulation of LPS-induced Nos2 expression,[6],2.6 fold
same,downregulation of Il1b expression,[7],2.1 fold
same,upregulation in Nqo1 expression,[8],3.0 fold
